This note sets out measurements from patent US5486514A, “Carbamate derivatives” (Glaxo SpA, priority 1992, dated 1996).

The target in one assay is CCK-A receptor. In words: CCK receptor binding, CCK-A receptor (Pancreas Assay). As for the experimental part:
(§1) The greater affinity of the compounds of the invention for the CCK-B receptor over the CCK-A receptor has also been established using the CCK receptor binding assays described by G Dal Fornos et al., J. Pharmcol. Exp & Ther. 261, 1056-1063, 1992.
(§2) The binding affinity of the compounds of the invention for the CCK-A receptor (Pancreas Assay) and CCK-B receptor (guinea pig cortex assay) was determined using the procedure of G Dal Forno et al J. Pharmacol. Exp & Ther. 261--1056-1063. The pKi values determined with representative compounds of invention were as follows: […]

The target of a further assay is T1, CCK-B receptor (Cavia porcellus, UniProt H0VZC5).
T1 construct: CCK-B receptor (guinea pig cortex assay); from tissue; host or cells: guinea pig cortex
T1 sequence (H0VZC5 entry or part of it): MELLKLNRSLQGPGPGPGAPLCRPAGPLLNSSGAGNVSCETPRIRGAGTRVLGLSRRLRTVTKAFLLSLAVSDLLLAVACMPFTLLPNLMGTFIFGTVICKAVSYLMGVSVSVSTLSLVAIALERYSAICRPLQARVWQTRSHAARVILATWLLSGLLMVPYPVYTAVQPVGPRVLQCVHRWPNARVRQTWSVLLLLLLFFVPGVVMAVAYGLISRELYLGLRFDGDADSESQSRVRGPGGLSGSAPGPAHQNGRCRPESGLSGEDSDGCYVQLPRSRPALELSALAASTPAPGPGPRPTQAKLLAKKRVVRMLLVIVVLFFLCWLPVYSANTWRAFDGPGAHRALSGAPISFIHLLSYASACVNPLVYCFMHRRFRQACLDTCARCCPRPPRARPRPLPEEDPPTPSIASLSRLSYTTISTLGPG
In words: CCK receptor binding, CCK-B receptor (guinea pig cortex assay). Conditions: read-out: pKi CCK-B (converted). As for the experimental part:
as §1, §2

`COc1cccc(OC(=O)NC2C(=O)N(CCC(C)C)c3cc(Cl)ccc3N(c3ccccc3)C2=O)c1` (racemic) [Example 38, 8-Chloro-2,4-dioxo-3-(3-methoxyphenyloxycarbonyl)amino-1-(3-methyl-1-butyl)-5-phenyl-2,3,4,5-tetrahydro-1H-1,5-benzodiazepine]: the “pKi CCK-A” value at CCK-A receptor is on record as 5.35. Besides, the Ki on CCK-B receptor was 20 nM.

For `O=C(NC1C(=O)N(CCC2CCCC2)c2ccccc2N(c2ccccc2F)C1=O)Oc1ccccc1` (stereo not drawn) [Example 13], the “pKi CCK-A” value at CCK-A receptor is recorded as 6.25. In addition, the Ki on CCK-B receptor was 4.57 nM.

For `CC(C)CCN1C(=O)C(NC(=O)Oc2cccc(N(C)C)c2)C(=O)N(c2ccccc2)c2ccc(Cl)cc21` (racemic) [Example 24, 8-Chloro-3-[3-(N,N-dimethylamino)phenyloxycarbonylamino]-2,4-dioxo-1-(3-methylbut-1-yl)-5-phenyl-2,3,4,5-tetrahydro-1H-1,5-benzodiazepine], the “pKi CCK-A” value on CCK-A receptor was found to be 5.89. Besides, the Ki at CCK-B receptor is 3.39 nM.

Consider `CC(C)CCN1C(=O)C(NC(=O)Oc2cccc(N(C)C)c2)C(=O)N(c2ccccc2)c2cc(Cl)c(Cl)cc21` (racemic) [Example 12, 7,8-Dichloro-3[3-(N,N-dimethylamino)phenyloxycarbonylamino]-2,4-dioxo-1-(3-methylbut-1-yl)-5-phenyl-2,3,4,5-tetrahydro-1H-1,5-benzodiazepine], for which the “pKi CCK-A” value at CCK-A receptor was 5.49. Moreover, the Ki on CCK-B receptor was 7.41 nM.

For the compound `CC(C)CCN1C(=O)C(NC(=O)Oc2cccc(N(C)C)c2)C(=O)N(c2ccccc2F)c2ccccc21` (racemic) [Example 8, 3-[3-(N,N-dimethylamino)phenyloxycarbonylamino]-2,4-dioxo-5-(2-fluorophenyl)-1-(3-methylbut-1-yl)-2,3,4,5-tetrahydro-1H-1,5-benzodiazepine], the “pKi CCK-A” value at CCK-A receptor stood at 6.38. Also, the Ki at CCK-B receptor was 1.58 nM.

For the compound `CN(C)c1cccc(OC(=O)NC2C(=O)N(CC34CC5CC(CC(C5)C3)C4)c3ccccc3N(c3ccccc3)C2=O)c1` (stereo not drawn) [Example 20], on CCK-A receptor, the “pKi CCK-A” value is 5.48. For the same compound, at CCK-B receptor, the Ki is 12.3 nM.

For the compound `COc1cccc(OC(=O)NC2C(=O)N(CCC(C)C)c3cc(Cl)c(Cl)cc3N(c3ccccc3)C2=O)c1` (racemic) [Example 25, 7,8-Dichloro-2,4-dioxo-3-(3-methoxyphenyloxycarbonyl)amino-1-(3-methyl-1-butyl)-5-phenyl-2,3,4,5-tetrahydro-1H-1,5-benzodiazepine], the “pKi CCK-A” value at CCK-A receptor is given as 5.37. Besides, the Ki at CCK-B receptor is 6.31 nM.

For `CC(C)CCN1C(=O)C(NC(=O)Oc2ccccc2)C(=O)N(c2ccccc2)c2ccccc21` (racemic) [Example 1, 2,4-Dioxo-1-(3-methylbut-1-yl)-5-phenyl-3-(phenyloxycarbonylamino)-2,3,4,5-tetrahydro-1H-1,5-benzodiazepine], the “pKi CCK-A” value on CCK-A receptor is 5.29. Further, the Ki on CCK-B receptor is 21.4 nM.

As to `CC(C)CCN1C(=O)C(NC(=O)Oc2cccc(N(C)C)c2)C(=O)N(c2ccccc2)c2ccccc21` (stereo not drawn) [Example 3], on CCK-A receptor, the “pKi CCK-A” value is 6.24. The Ki on CCK-B receptor was 3.16 nM.

On to `CN(C)c1cccc(OC(=O)NC2C(=O)N(CCC(C)(C)C)c3ccccc3N(c3ccccc3F)C2=O)c1` (racemic) [Example 9, 3-[3-(N,N-dimethylamino)phenyloxycarbonylamino]-1-(3,3-dimethylbut-1-yl)-2,4-dioxo-5-(2-fluorophenyl)-2,3,4,5-tetrahydro-1H-1,5-benzodiazepine], for which, at CCK-A receptor, the “pKi CCK-A” value turned out to be 6.75. For the same compound, the Ki on CCK-B receptor is 1.02 nM.

Turning to `CC(C)C(=O)CN1C(=O)C(NC(=O)Oc2cccc(N(C)C)c2)C(=O)N(c2ccccc2)c2ccccc21` (stereo not drawn) [Example 4, 3-[3-(N,N-dimethylamino)phenyloxycarbonylamino-2,4-dioxo-1-(3-methyl-2-oxo)but-1-yl)-5-phenyl-2,3,4,5-tetrahydro-1H-1,5-benzodiazepine], the “pKi CCK-A” value on CCK-A receptor is on record as 6.25. The Ki on CCK-B receptor was 3.09 nM.

Consider `CC(C)(C)CCN1C(=O)C(NC(=O)Oc2ccccc2)C(=O)N(c2ccccc2F)c2ccccc21` (stereo not drawn) [Example 7], for which the “pKi CCK-A” value at CCK-A receptor came out at 6.43. Further, on CCK-B receptor, the Ki is 3.89 nM.
